Measurements published in US12421279B2, “Cyclic peptide antiviral agents and methods using same” (priority 2016, dated 2025).
pIC50, pKd: −log10 of the molar value. Where “and” joins values, the source holds several entries; their conditions need not be identical. Equal entries are not always repeated. Where two headings read alike, the source gives them in different places. *1 amine or outer side, *2 acyl side, *3 side chain or, on linkers, in order; H or OH if unused. Where a SMILES comes first, the peptide text is derived from it. Bridges are numbered along the chain shown (N, C = ends). [ ]: non-standard residue; d: D form. X2 = O=C([C@@H]1C[C@H](n2cc([C]34[CH]5[CH]6[CH]7[CH]3[Fe]6754389%10[CH]4[CH]3[CH]8[CH]9[CH]4%10)nn2)CN1[*:1])[*:2]; X17 = O=C([C@@H]1C[C@H](n2cc(C3=CC=C[CH]3[Fe][CH]3C=CC=C3)nn2)CN1[*:1])[*:2]; X1 = O=C([C@@H]1C[C@H](n2cc(-c3ccc(-c4cccs4)cc3)nn2)CN1[*:1])[*:2]; X6 = O=C([C@@H]1C[C@H](n2cc(-c3ccc(-c4cccs4)s3)nn2)CN1[*:1])[*:2]; X9 = CCc1ccc(-c2cn([C@H]3C[C@@H](C(=O)[*:2])N([*:1])C3)nn2)cc1; Bta = N[C@@H](Cc1csc2ccccc12)C(=O)O; Chg = N[C@H](C(=O)O)C1CCCCC1; Dab = NCC[C@H](N)C(=O)O

Assays:
wild type gp120 YU-2 = molecular target: T1, wild type gp120 YU-2 (Human immunodeficiency virus type 1 group M subtype B, UniProt P35961); assay: Isothermal titration calorimetry binding to gp120; parameters: species or system HIV-1; conditions: for ΔH / ΔS / −TΔS: ITC, 25° C.
T1 construct: into 30 μM of YU2 full-length gp120 at 25° C; made in house; host or cells: HEK 293F
Protocol: FIGS. 9A-9C illustrate cPT binding and thermodynamic profile of monomeric wild type gp120 YU-2 for cPTs 3 (FIGS. 9A and 9C) and 36 (FIGS. 9B and 9C). Compound solution, 390 μM (for 3) or 200 μM (for 36), was titrated in 8 μL steps into 30 μM of YU2 full-length gp120 at 25° C. in the reaction chamber of a VP-ITC instrument using 1×PBS buffer at pH 7.3. The resulting heat changes were integrated, and the values obtained were fitted to a quadratic binding equation (one site binding model).
cPT dissociation constants were determined at 25° C. on a VP-Isothermal Titration calorimeter (VP-ITC) system (MicroCal™, GE Healthcare, Freiburg). 200 μM (for 36) or 390 μM (for 3) compound solutions were in 8 μL steps titrated into 30 μM of wild type gp120 YU-2 at 25° C. using 1×PBS buffer at pH 7.3. The resulting heat change upon injection was integrated over a time range of 300 sec, and the obtained values were fitted to a standard single-site binding model using ORIGIN®.

HOS.T4.R5 cells = conditions: for cytotoxicity (cell viability): highest concentrations used 100 μM, 24 h post-exposure
Protocol: cPTs 36 and 37 were tested for cytotoxicity in vitro with HOS.T4.R5 cells. The latter were seeded at […] per well and incubated with peptides as described elsewhere herein for the infection inhibition assays. Cell viability was determined using the tetrazolium salt premix reagent WST-1 from TaKaRa Bio, Inc., by following the manufacturer's protocol. The formazan product was measured 24 h post-exposure using a microplate reader (Molecular Devices) at an absorbance wavelength of 450 nm.

[1] = molecular target: T2, HIV-1YU-2 gp120 binding to sCD4 (Human immunodeficiency virus type 1 group M subtype B, UniProt P35961); assay: SPR competition assay: inhibition of gp120 binding to CD4; conditions: for inhibition of gp120 binding to CD4 (in words): SPR competition
T2 construct: The purified DNA encoding gp120 YU-2 was transfected into HEK 293F cells; made in house; host or cells: HEK 293F
Protocol: (§1) SPR experiments are performed on a Biacore 3000 optical biosensor (GE Healthcare). All experiments are carried out at 25° C. using standard PBS buffer pH=7.4 with 0.005% surfactant Tween and 2% DMSO.
(§2) Three flow cells in the CM5 chip were used for amine coupling of different ligands through standard 1-ethyl-3-(3-(dimethylamino) propyl) carbodiimide (EDC)/N-hydroxysuccinamide (NHS) chemistry. Flow cell 1 containing 2000 RUs of immobilized antibody 2B6R (α-human IL5R) served as a negative control for flow cells 2 and 3 each of which contained 2000 RUs of immobilized CD4 and 17b respectively.
(§3) For kinetic analyses, typically 2000-3000 RUs of protein reagents are immobilized on SPR chips, and analytes are passed over the surface at 50-100 μL/min. Surface regeneration is achieved by a 5 μL injection of 10 mM HCl solution at 100 μL/min. […] Regeneration of the surface is achieved by a single 10 second pulse of 1.3 M NaCl/35 mM NaOH and single 5-second pulse of 10 mM glycine, pH 1.5, for sCD4 and mAb 17b, respectively.
(§4) Data analysis of SPR competition data was performed using BIAevaluation v4.1.1 software (GE). To correct for nonspecific binding, response signals from buffer injection and from control flow cell were subtracted from all sensorgrams. Inhibition potencies were determined by calculating the inhibitor concentration required for 50% inhibition of maximal binding (IC50). The inhibition curve was plotted and then fitted using the four-parameter equation as shown below using OriginPro 8 graphing software.
(§5) The cyclic peptides of the invention are tested against HIV-1 gp120 by SPR competition assays. A mixture of the cyclic peptide/gp120 solutions is passed over SPR chip immobilized with CD4 and 17b separately. The competition assay evaluates the ability of each peptide to inhibit the binding between gp120 and both soluble CD4 and 17b antibody, a surrogate for co-receptor.

[2] = molecular target: T3, HIV-1YU-2 gp120 binding to mAb 17b (Human immunodeficiency virus type 1 group M subtype B, UniProt P35961); assay: SPR competition assay: inhibition of gp120 binding to 17b (co-receptor surrogate); conditions: for inhibition of gp120 binding to 17b (in words): SPR competition
T3 construct: The purified DNA encoding gp120 YU-2 was transfected into HEK 293F cells; made in house; host or cells: HEK 293F
Protocol: as §1, §2, §3, §4, §5

HIV-1Bal.01 = conditions: for pIC50: read-out: HIV-1Bal.01 infection inhibition IC50, HIV-1Bal.01 pseudovirus, HOS.T4.R5 cells
[3] = PBS buffer or PBS buffer with 5% DMSO
Description: Each cPT was synthesized starting from the corresponding amino acids: Asn for 34 and Dab for 35. Designation of “poor” and “good” solubility was based on behavior of cPT in PBS buffer or PBS buffer with 5% DMSO.

[4] = test system: subtype A, B and C isolates; conditions: read-out: IC50 range, neutralizes viral infection by subtype A; cited from earlier work
tissue explants model = conditions: concentrations up to 100 μM; cited from earlier work
[5] = test system: viruses pseudotyped with VSV-G; conditions: background; cited from earlier work
monomeric gp120 = monomeric gp120 (Human immunodeficiency virus type 1 group M subtype B, UniProt P35961); conditions: background; cited from earlier work

Q: Which ΔH (wild type gp120 YU-2) does the source give for `CC[C@H](C)[C@@H]1NC(=O)[C@H](CC(N)=O)NC(=O)[C@@H](N)CC(=O)NCCCC[C@@H](C(N)=O)NC(=O)[C@H](Cc2c[nH]c3ccccc23)NC(=O)[C@@H]2C[C@H](n3cc([C]45[CH]6[CH]7[CH]8[CH]4[Fe]786549%10%11[CH]5[CH]4[CH]9[CH]%10[CH]5%11)nn3)CN2C1=O` (stereo partly drawn) [cPT 3] (H-DNI[X2]WK-NH2; lactam 1-6) here?
A: -5.96 kcal/mol and -5.96 ± 0.13 kcal/mol

Q: What about the ΔS (wild type gp120 YU-2) of the same compound?
A: 0.00922 kcal/mol

Q: And the “−TΔS” value (wild type gp120 YU-2)?
A: -2.75 kcal/mol

Q: With `CC[C@H](C)[C@@H]1NC(=O)[C@H](CC(N)=O)NC(=O)[C@@H](N)CC(=O)NCCCC[C@@H](C(N)=O)NC(=O)[C@H](Cc2c[nH]c3ccccc23)NC(=O)[C@@H]2C[C@H](n3cc(C4=CC=C[CH]4[Fe][CH]4C=CC=C4)nn3)CN2C1=O` (stereo partly drawn) [cPT 3] (H-DNI[X17]WK-NH2; lactam 1-6) as the compound, how does the pKd (wild type gp120 YU-2) read?
A: 6.38

Q: What does the source list for `CC[C@H](C)[C@@H]1NC(=O)[C@H](CC(N)=O)NC(=O)[C@@H](N)CC(=O)NCCCC[C@@H](C(N)=O)NC(=O)[C@H](Cc2c[nH]c3ccccc23)NC(=O)[C@@H]2C[C@H](n3cc(-c4ccc(-c5cccs5)cc4)nn3)CN2C1=O` [cPT 36, (3S,6S,14S,17S,20S,24S,25aS)-3-((1H-indol-3-yl)methyl)-14-amino-17-(2-amino-2-oxoethyl)-20-((S)-sec-butyl)-1,4,12,15,18,21-hexaoxo-24-(4-(4-(thiophen-2-yl)phenyl)-1H-1,2,3-triazol-1-yl)tetracosahydro-1H-pyrrolo[2,1-f][1,4,7,10,13,18]hexaazacyclotricosine-6-carboxamide] (H-DNI[X1]WK-NH2; lactam 1-6)?
A: selectivity index (SI) (HOS.T4.R5 cells; estimated from the IC50 and the CC50 values): > 1000; cytotoxicity (cell viability) (HOS.T4.R5 cells): no cytotoxicity was detected; pKd (wild type gp120 YU-2): 6.46; ΔH (wild type gp120 YU-2): -4.07 ± 0.06 kcal/mol; ΔS (wild type gp120 YU-2): 0.0159 kcal/mol; −TΔS (wild type gp120 YU-2): -4.74 kcal/mol; pIC50 [1]: ~7.18; inhibition of gp120 binding to CD4 (in words) [1]: inhibited gp120 binding to both CD4 and 17b; inhibition of gp120 binding to CD4 (in words) ([1]; listed as 29N-2): dual inhibitors of both CD4 and 17b binding to gp120; pIC50 [2]: ~7.25; inhibition of gp120 binding to 17b (in words) [2]: inhibited gp120 binding to both CD4 and 17b; inhibition of gp120 binding to 17b (in words) ([2]; listed as 29N-2): dual inhibitors of both CD4 and 17b binding to gp120; fold improvement in potency compared to 23 (HIV-1Bal.01; infection inhibition): > 2 fold; pIC50 (HIV-1Bal.01): 6.98 and ~7.00; pIC50 (HIV-1Bal.01; listed as 29N-2): ~6.98

Q: For `CCc1ccc(-c2cn([C@H]3C[C@H]4C(=O)N[C@@H](Cc5csc6ccccc56)C(=O)N[C@H](C(N)=O)CCCCNC(=O)C[C@H](N)C(=O)N[C@@H](CC(N)=O)C(=O)N[C@@H](C5CCCCC5)C(=O)N4C3)nn2)cc1` [compound 34] (H-DN[Chg][X9][Bta]K-NH2; lactam 1-6), which solubility [3] is on record?
A: poor solubility

Q: With `CCc1ccc(-c2cn([C@H]3C[C@H]4C(=O)N[C@@H](Cc5csc6ccccc56)C(=O)N[C@H](C(N)=O)CCCCNC(=O)C[C@H](N)C(=O)N[C@@H](CCN)C(=O)N[C@@H](C5CCCCC5)C(=O)N4C3)nn2)cc1` [compound 35] (H-D[Dab][Chg][X9][Bta]K-NH2; lactam 1-6) as the compound, how does the solubility [3] read?
A: better solubility

Q: Which results are given for `CC[C@H](C)[C@@H]1NC(=O)[C@H](CC(N)=O)NC(=O)[C@@H](N)CC(=O)NCCCC[C@@H](C(N)=O)NC(=O)[C@H](Cc2c[nH]c3ccccc23)NC(=O)[C@@H]2C[C@H](n3cc(-c4ccc(-c5cccs5)s4)nn3)CN2C1=O` [compound 37] (H-DNI[X6]WK-NH2; lactam 1-6)?
A: cytotoxicity (cell viability) (HOS.T4.R5 cells): no cytotoxicity was detected; pIC50 (HIV-1Bal.01): 6.39

Q: With “(S)-4-((S)-2-((S)-2-((2S,4S)-1-(L-arginyl-L-isoleucyl-L-asparaginyl-L-asparaginyl-L-alloisoleucyl)-4-(4-ferrocenyl-1H-1,2,3-triazol-1-yl)pyrrolidine-2-carboxamido)-3-(1H-indol-3-yl) propanamido)-3-hydroxypropanamido)-5-(((S)-1-(((S)-1-(((S)-1-amino-4-(methylthio)-1-oxobutan-2-yl)amino)-4-(methylthio)-1-oxobutan-2-yl)amino)-1-oxopropan-2-yl)amino)-5-oxopentanoic acid [HNG156]” as the compound, how does the pIC50 [4] read?
A: 4.20 to 7.10

Q: What about the toxicity (tissue explants model) of the same compound?
A: no detectable toxicity

Q: What about the “neutralization of VSV-G pseudotyped viruses” value [5] of the same compound?
A: not viruses pseudotyped with VSV-G

Q: And the pKd (monomeric gp120)?
A: 8.15
